Assay results from patent US8247376B2, “NGAL for reduction and amelioration of ischemic and nephrotoxic injuries” (The Trustees of Columbia University, priority 2004, dated 2012).
Entries after “also recorded” stand apart in the source; their conditions may differ. Values belong to the molecule of their own block, whether it stands above or below them.

Legend:
[1] = system: mouse model of ATN or ischemia/reperfusion injury; assay: Mouse model of ATN (30 min clamp, contralateral nephrectomy): plasma creatinine; type: in vivo, mice; settings: mice, 30 minutes of ischemia; 10 μg protein or single dose, 15 min prior to ischemia
Description: Male C57BL/6 mice (20-25 gr; Charles River) were anesthetized with intraperitoneal pentobarbital (50 mg/kg) and placed on a heating pad under a warming light to maintain 37© core body temperature. Kidneys were exposed through an abdominal section and the right kidney was either removed or its vascular pedicle and ureter ligated. The vascular pedicle of the left kidney or both kidneys was clamped by a microaneurysm clip (Kent Scientific) for 30 minutes after right nephrectomy. This period of ischemia generated reproducible renal injury but minimized mortality. During the procedure, PBS (0.5 ml) was used to dampen the peritoneum. The animal was closed with 5-0 Nylon. Saline, NGAL, retinol-loaded retinol binding protein (RBP), enterochelin, or desferroxamine mesylate (DFO) were injected into the peritoneum or subcutaneously 15 min. prior to ischemia or 1-2 hr after reperfusion.
After 6 or 24 hr of reperfusion, heparinized plasma, urine and kidney samples were obtained to measure NGAL (polyclonal 1:500), Heme oxygenase-1 (Stressgen, 1:2000), E-cadherin (BD Transduction Labs, 1:2000), N-cadherin (BD Transduction Labs, 1:3000) and GAPDH (Chemicon International, 1:3000) using immunoblots. Plasma was also used for creatinine and blood urea nitrogen colorimetric assays. Sagittal sections of the kidney were fixed in 4% formalin, or were snap frozen for mRNA and protein analysis. Paraffin-embedded sections (5 μm) were stained with hematoxylin-eosin or by an in situ kit (Fluorescein-TUNEL, Roche) for apoptotic nuclei or for total nuclei (Toprol, Molecular Probes). For cell proliferation analysis, BrdU was injected into the peritoneum 1 hour before sacrifice, and cryostat sections were stained with anti-BrdU (Roche) according to the manufacturer.

[2] = molecular target: NGAL (Homo sapiens, UniProt P80188); settings: read-out: affinity of siderophore binding to NGAL (calyx); cited from earlier work
[3] = Distribution and radioautography of ^55Fe after ^55Fe:Sid:NGAL injection; type: in vivo, mice; settings: non-protein bound ^55Fe citrate
[4] = previously reported; cited from earlier work

Molecule: O=C(N[C@H]1COC(=O)[C@@H](NC(=O)c2cccc(O)c2O)COC(=O)[C@@H](NC(=O)c2cccc(O)c2O)COC1=O)c1cccc(O)c1O [Sid, enterochelin, reference compound]
protection against ATN (creatinine, FIG. 17A) [1]: failed to protect against ATN; also recorded: ineffective
Kd [2]: 400 pM

iron recovered in the kidney [3]: 1.5%
Molecule: O=C([O-])CC(O)(CC(=O)[O-])C(=O)[O-].[Fe+3] [^55Fe citrate]

B1: human NGAL: human NGAL of previously reported clearance data (protein, UniProt P80188 21-198, looked up)
Neutrophil …: QDSTSDLIPAPPLSKVPLQQNFQDNQFQGKWYVVGLAGNAILREDKDPQKMYATIYELKEDKSYNVTSVLFRKKKCDYWIRTFVPGCQPGEFTLGNIKSYPGLTSYLVRVVSTNYNQHAMVFFKKVSQNREYFKITLYGRTKELTSELKENFIRFSKSLGLPENHIVFPVPIDQCIDG
kidney versus liver level per mg protein [4]: 12 fold
t1/2 of clearance from the circulation [4]: 10 min
